Experimental data from ChEMBL document CHEMBL6121066, “Structure-Activity Relationship Studies of DNA Methyltransferase 1 Monovalent Degraders” (J Med Chem, 2025).
The source made the active and inactive calls. The rule behind the calls is not given here.

Assays:
[1] = target: DNA (cytosine-5)-methyltransferase 3A (Homo sapiens) (UniProt Q9Y6K1); experiment: Inhibition of human DNMT3A using lambda DNA and SAM as substrate at 1 uM by radioisotope-based MT HotSpot assay relative to control
HCT-116 [2] = experiment: Effect on DNMT1 mRNA level in human HCT-116 cells at 500 nM incubated for 24 hrs by RT-qPCR analysis; format: functional, cell-based
HCT-116 [3] = experiment: Induction of molecular glue effect mediated DNMT1 degradation in human HCT-116 cells transfected with WWP1 siRNA assessed as reduction in DNMT1 protein level at 100 nM measured after 24 hrs by Western blot analysis; format: cell-based
HCT-116 [4] = experiment: Induction of molecular glue effect mediated DNMT1 degradation in human HCT-116 cells assessed as reduction in DNMT1 protein level at 100 nM preincubated with MG132 for 2 hrs followed by compound addition and measured after 24 hrs by Western blot analysis; format: cell-based
HCT-116 [5] = experiment: Induction of molecular glue effect mediated DNMT3B degradation in human HCT-116 cells assessed as reduction in DNMT3B protein level at 500 nM incubated for 24 hrs by Western blot analysis; format: cell-based
[6] = target: Histone-lysine N-methyltransferase, H3 lysine-79 specific (Homo sapiens) (UniProt Q8TEK3); experiment: Inhibition of human DOT1L using oligo nucleosomes and SAM as substrate at 1 uM by radioisotope-based MT HotSpot assay relative to control
NCI-H1299 [7] = experiment: Induction of molecular glue effect mediated DNMT1 degradation in human NCI-H1299 cells assessed as reduction in DNMT1 protein level at 100 nM preincubated with MG132 for 2 hrs followed by compound addition and measured after 24 hrs by Western blot analysis; format: cell-based
MDA-MB-468 [8] = experiment: Induction of molecular glue effect mediated DNMT1 degradation in human MDA-MB-468 cells assessed as reduction in DNMT1 protein level at 100 nM preincubated with MLN4924 for 2 hrs followed by compound addition and measured after 24 hrs by Western blot analysis; format: cell-based
HCT-116 [9] = experiment: Induction of molecular glue effect mediated DNMT1 degradation in human HCT-116 cells assessed as reduction in DNMT1 protein level by measuring half-life at 500 nM preincubated with cycloheximide for 2 hrs followed by compound administration and measured after 24 hrs by Western blot analysis; format: cell-based
[10] = target: DNA (cytosine-5)-methyltransferase 1 (Homo sapiens, UniProt P26358); experiment: Inhibition of human DNMT1 (350 to 1600 residues) extracted from Escherichia coli BL21 (DE3)-codon plus-RIL cells in presence of SAM and hemimethylated DNA
HCT-116 [11] = experiment: Induction of molecular glue effect mediated DNMT1 degradation in human HCT-116 cells transfected with Smurf2 siRNA assessed as reduction in DNMT1 protein level at 100 nM measured after 24 hrs by Western blot analysis; format: cell-based
MDA-MB-468 [12] = experiment: Induction of molecular glue effect mediated DNMT1 degradation in human MDA-MB-468 cells assessed as reduction in DNMT1 protein level at 100 nM preincubated with MG132 for 2 hrs followed by compound addition and measured after 24 hrs by Western blot analysis; format: cell-based
HCT-116 [13] = experiment: Induction of molecular glue effect mediated DNMT1 degradation in human HCT-116 cells assessed as reduction in DNMT1 protein level at 500 nM by Western blot analysis; format: cell-based; details: time 2-24 hrs
[14] = target: T1, Histone-lysine N-methyltransferase EHMT1 (Homo sapiens) (UniProt Q9H9B1); experiment: Inhibition of human GLP using Histone H3 and SAM as substrate at 1 uM by radioisotope-based MT HotSpot assay relative to control
T1 sequence (whole entry): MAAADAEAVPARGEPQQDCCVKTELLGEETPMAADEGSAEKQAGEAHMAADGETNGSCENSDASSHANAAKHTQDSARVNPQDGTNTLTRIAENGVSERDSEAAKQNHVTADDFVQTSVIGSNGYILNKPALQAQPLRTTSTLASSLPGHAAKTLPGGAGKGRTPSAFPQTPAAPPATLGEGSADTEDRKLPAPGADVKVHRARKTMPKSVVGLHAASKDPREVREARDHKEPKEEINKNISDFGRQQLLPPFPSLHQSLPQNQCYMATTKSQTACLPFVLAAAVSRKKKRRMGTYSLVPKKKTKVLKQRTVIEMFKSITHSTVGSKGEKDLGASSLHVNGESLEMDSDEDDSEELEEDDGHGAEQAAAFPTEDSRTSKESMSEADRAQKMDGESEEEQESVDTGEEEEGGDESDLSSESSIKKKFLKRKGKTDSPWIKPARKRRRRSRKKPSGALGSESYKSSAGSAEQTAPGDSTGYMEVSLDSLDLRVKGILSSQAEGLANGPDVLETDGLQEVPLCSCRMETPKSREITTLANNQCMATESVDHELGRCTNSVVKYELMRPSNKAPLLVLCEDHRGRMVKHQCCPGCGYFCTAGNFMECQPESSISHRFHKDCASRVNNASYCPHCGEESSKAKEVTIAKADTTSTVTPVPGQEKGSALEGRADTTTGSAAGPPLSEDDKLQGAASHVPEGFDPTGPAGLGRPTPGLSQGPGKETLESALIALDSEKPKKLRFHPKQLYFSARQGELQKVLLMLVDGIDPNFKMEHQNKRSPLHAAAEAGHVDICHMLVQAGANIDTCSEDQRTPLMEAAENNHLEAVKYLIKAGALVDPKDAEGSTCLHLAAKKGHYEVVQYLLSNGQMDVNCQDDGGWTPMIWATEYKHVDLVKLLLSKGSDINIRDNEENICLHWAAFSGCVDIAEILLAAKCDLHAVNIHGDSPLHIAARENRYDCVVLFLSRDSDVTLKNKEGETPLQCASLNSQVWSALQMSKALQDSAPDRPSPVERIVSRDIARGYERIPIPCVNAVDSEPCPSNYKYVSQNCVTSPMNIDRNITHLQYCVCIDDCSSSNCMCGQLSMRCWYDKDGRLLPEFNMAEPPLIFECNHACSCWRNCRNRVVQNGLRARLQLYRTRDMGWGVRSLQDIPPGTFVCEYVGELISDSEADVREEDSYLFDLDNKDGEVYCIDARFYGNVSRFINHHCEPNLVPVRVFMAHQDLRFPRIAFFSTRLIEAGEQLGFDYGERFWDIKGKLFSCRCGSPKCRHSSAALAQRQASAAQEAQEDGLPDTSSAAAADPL

NCI-H1299 [15] = experiment: Induction of molecular glue effect mediated DNMT1 degradation in human NCI-H1299 cells assessed as reduction in DNMT1 protein level at 100 nM preincubated with MLN4924 for 2 hrs followed by compound addition and measured after 24 hrs by Western blot analysis; format: cell-based
NCI-H1299 [16] = experiment: Effect on DNMT1 mRNA level in human NCI-H1299 cells at 500 nM incubated for 24 hrs by RT-qPCR analysis; format: functional, cell-based
HCT-116 [17] = experiment: Antiproliferative activity against human HCT-116 cells assessed as inhibition of cell growth upto 15 uM incubated for 7 days by CCK8 assay relative to control; format: functional; details: time 7 day, up to 15 µM
HCT-116 [18] = experiment: Induction of molecular glue effect mediated DNMT1 degradation in human HCT-116 cells assessed as reduction in DNMT1 protein level at 500 nM measured after 2 hrs by Western blot analysis relative to control; format: cell-based; set-up: scale not given: the % may be the effect or the level left

Sequence of DNA (cytosine-5)-methyltransferase 3A (Homo sapiens) (Q9Y6K1 whole entry, looked up): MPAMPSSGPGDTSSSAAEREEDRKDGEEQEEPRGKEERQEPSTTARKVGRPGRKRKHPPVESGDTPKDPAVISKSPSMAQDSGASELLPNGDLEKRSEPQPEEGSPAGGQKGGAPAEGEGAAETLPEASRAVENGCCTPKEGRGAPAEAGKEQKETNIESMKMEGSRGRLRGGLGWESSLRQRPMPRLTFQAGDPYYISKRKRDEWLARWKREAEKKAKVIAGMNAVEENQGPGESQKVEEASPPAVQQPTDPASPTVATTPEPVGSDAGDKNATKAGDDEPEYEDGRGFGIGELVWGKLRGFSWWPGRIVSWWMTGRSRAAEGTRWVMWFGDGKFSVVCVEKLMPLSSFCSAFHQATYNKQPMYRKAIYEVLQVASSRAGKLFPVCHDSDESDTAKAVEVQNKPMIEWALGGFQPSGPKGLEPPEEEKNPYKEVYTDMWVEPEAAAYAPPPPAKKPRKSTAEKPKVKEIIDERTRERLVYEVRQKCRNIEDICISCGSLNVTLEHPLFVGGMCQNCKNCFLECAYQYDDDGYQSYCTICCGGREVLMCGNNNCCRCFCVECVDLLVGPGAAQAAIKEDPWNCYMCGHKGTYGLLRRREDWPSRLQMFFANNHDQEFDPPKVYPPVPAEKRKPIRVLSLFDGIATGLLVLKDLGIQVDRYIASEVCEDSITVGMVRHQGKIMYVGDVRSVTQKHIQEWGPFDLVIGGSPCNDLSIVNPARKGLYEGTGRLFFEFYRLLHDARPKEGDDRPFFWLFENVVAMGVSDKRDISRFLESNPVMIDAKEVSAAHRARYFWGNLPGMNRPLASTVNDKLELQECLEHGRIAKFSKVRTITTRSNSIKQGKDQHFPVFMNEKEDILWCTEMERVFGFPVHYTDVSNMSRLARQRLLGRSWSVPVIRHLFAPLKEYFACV
Sequence of Histone-lysine N-methyltransferase, H3 lysine-79 specific (Homo sapiens) (Q8TEK3 whole entry, looked up): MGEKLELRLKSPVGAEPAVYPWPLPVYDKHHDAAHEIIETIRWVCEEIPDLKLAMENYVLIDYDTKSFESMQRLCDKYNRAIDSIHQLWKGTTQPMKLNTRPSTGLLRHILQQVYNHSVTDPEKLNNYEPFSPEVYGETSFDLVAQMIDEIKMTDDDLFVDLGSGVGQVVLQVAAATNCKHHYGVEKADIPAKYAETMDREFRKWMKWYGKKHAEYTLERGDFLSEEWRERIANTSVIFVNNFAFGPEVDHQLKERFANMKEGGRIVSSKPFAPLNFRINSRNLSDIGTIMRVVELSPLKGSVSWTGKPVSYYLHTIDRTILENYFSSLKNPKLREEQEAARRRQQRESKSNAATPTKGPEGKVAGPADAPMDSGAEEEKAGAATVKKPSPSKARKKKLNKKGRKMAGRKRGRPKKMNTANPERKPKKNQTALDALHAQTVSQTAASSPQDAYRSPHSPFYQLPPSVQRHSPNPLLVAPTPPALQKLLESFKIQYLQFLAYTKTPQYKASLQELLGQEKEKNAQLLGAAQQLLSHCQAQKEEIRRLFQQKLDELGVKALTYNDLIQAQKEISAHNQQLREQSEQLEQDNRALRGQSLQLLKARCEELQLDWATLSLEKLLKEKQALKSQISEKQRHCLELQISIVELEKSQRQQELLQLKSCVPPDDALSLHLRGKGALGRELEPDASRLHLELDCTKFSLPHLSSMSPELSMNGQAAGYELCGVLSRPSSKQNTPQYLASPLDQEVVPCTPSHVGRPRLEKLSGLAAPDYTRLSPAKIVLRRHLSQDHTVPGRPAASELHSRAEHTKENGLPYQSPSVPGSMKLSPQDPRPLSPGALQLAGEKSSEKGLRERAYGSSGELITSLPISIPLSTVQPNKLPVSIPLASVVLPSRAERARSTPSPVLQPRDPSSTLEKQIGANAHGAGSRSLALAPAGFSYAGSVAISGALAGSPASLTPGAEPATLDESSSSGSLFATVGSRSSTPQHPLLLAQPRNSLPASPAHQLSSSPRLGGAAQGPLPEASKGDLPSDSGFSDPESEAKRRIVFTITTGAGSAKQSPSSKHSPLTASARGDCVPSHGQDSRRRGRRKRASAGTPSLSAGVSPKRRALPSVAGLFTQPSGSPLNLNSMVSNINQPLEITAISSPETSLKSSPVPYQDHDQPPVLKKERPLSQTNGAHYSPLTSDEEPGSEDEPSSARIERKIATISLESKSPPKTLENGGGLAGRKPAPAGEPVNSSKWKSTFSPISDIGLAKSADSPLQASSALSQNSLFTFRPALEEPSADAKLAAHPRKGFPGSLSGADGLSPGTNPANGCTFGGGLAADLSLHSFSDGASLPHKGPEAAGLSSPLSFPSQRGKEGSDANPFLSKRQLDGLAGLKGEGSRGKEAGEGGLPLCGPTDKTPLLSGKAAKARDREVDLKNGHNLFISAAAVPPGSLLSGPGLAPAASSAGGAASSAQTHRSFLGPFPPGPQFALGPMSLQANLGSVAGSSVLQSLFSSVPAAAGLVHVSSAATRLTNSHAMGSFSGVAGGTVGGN
Sequence of DNA (cytosine-5)-methyltransferase 1 (P26358 whole entry, the tested form may be a part): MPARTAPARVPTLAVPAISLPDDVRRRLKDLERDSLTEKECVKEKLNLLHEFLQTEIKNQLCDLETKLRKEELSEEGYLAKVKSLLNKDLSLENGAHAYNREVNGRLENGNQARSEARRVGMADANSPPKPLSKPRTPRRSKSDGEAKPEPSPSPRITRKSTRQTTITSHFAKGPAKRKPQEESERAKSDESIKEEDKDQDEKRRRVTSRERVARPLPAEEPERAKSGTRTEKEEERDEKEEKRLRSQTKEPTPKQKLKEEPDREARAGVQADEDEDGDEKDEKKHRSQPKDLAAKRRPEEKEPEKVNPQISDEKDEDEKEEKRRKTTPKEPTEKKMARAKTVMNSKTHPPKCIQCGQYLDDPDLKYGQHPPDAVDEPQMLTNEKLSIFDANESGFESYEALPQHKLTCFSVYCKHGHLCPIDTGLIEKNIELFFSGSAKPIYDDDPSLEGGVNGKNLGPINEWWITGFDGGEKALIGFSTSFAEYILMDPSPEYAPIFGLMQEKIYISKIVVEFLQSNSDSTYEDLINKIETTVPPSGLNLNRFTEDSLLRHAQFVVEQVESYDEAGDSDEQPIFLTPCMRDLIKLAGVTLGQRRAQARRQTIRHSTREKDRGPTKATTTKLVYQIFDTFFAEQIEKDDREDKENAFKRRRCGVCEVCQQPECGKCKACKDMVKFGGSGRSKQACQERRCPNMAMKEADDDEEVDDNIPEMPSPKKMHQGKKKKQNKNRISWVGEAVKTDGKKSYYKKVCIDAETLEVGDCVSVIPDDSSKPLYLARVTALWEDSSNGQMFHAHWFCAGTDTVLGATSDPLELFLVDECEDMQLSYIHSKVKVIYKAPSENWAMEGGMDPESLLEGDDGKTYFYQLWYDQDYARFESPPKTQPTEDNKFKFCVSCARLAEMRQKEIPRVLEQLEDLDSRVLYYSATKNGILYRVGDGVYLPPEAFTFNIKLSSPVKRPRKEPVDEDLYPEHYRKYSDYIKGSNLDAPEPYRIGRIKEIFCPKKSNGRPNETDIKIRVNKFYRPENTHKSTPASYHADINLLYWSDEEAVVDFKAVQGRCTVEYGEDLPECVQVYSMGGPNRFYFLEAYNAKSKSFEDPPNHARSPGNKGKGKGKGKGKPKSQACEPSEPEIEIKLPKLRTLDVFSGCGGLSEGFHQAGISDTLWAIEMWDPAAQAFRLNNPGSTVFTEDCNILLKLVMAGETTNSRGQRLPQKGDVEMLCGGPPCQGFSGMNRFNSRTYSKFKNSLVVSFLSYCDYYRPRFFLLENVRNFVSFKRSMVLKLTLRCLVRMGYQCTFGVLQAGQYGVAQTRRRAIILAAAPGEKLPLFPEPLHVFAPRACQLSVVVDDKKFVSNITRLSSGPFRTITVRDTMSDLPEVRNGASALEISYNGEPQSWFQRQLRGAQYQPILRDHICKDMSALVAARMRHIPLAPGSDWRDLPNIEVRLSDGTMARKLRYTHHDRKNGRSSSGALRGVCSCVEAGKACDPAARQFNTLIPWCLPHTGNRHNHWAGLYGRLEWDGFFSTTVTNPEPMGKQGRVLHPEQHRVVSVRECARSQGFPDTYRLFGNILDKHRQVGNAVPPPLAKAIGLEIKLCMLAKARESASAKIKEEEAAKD

Structure (SMILES): CCc1c(C#N)c(SC(C(N)=O)c2ccccc2)nc(N(C)CC(=O)NC)c1C#N (stereo not drawn)
- inhibition [1]: < 20%
- Activity (HCT-116 [2]): inactive
- Activity (HCT-116 [3]): Active
- Activity (HCT-116 [4]): inactive
- Activity (HCT-116 [5]): inactive
- inhibition [6]: < 20%
- Activity (NCI-H1299 [7]): inactive
- Activity (MDA-MB-468 [8]): Active
- T1/2 (HCT-116 [9]): < 4 h
- IC50 [10]: 0.43 µM
- Activity (HCT-116 [11]): Active
- Activity (MDA-MB-468 [12]): inactive
- Activity (HCT-116 [13]): Time-dependent-effect
- inhibition [14]: < 20%
- Activity (NCI-H1299 [15]): Active
- Activity (NCI-H1299 [16]): inactive
- inhibition (INH) (HCT-116 [17]): <50%
- Activity (HCT-116 [18]): 50%
